Experimental data published in patent US12454704B2, “Efficient gene delivery tool with a wide therapeutic margin” (priority 2019, dated 2025).

Assays:
female NMRI nu/nu mice = assay: Chronic toxicity (tolerability) study of nanoplasmids (NP) plus AG1856 in vivo; details: 90 μg per mouse
Description: This study was performed to evaluate the tolerability of combined treatment of nanoplasmids (NP) and AG1856 in Naval Medical Research Institute (NMRI) nu/nu mice.
For the study, female NMRI nu/nu mice were used. Animals were treated with NP+AG1856 at doses of 50 and 90 μg/mouse respectively and after animal recovery in a second round at same doses.

Neuro2a cells [1] = assay: Cell viability test via impedance measurement (iCELLigence); assay type: cell-based, murine
Description: The impedance (alternating current resistance) at the well bottom as real-time cell viability measure of adherent cells was determined by the iCELLigence® device. 8000 Neuro2a cells per well were seeded into two 8-well E-plates L8 and incubated for 24 h in a volume of 800 μL. For transfection toxicity studies 50 μL of reagent was added after the respective volume of culture medium was removed. Each 10 minutes the impedance/viability was measured.
The curves indicated in FIG. 2 represent the results of the following measurements: […]

Neuro2a cells [2] = assay: Cell confluency as a measure of cell viability, determined optically (Cytosmart); assay type: cell-based, murine; details: saponin 24 μg/mL applied 24 h after seeding
Description: Murine neuroblastoma cells (Neuro2a cells, ATTC CCL-131™) were cultured in Dulbecco's Modified Eagle's Medium (DMEM), containing 1 g/L D-Glucose, 10% FBS and stable glutamine, at 37° C. and 5% CO2. These cells were then incubated with different saponins to test the cytotoxic effect of the saponins.
The cell confluency as a measure of cell viability was determined optically via cell number calculating algorithms (Cytosmart). The results are depicted in FIGS. 1A to 1D.
Buffer was used in each case as negative control.

Neuro2a cells [3] = assay: Cell viability test by MTT assay; assay type: cell-based, murine; details: same concentration for all saponins (FIG. 3)
From the text: The determination of mitochondrial activity due to the formation of formazan out of MTT served as biochemical method to measure cell viability.

Neuro2a cells [4] = assay type: cell-based, murine; details: 5 μg/mL
From the text: To evaluate an enhancement of the transfection efficiency through AG1856 an optical based cytotoxicity assay after transfection with ribosome inactivating proteins (RIPs) was chosen.
As transgenes, 6-His-Agrostin RNA3 (Weise et al. 2020) and 6-His-Saporin 3 (Fabbrini et al. 1997) were cloned via BamHI and XbaI (Agrostin) and via SalI and NheI cleavage into pMC.CMV-MCS-SV40polyA (BioCat GmbH, Heidelberg, Germany) to produce minicircle with ZYCY10P3S2T (Kay et al. 2010). In addition to this, Saporin 3 and Gypsophillin S (Kokorin et al. 2019) were cloned into NTC9385R-BGHpA-Nanoplasmids and synthesized by Nature Technology Corporation (Lincoln, NB, USA) as previously described (Luke et al. 2011).
For 3 wells (96-Well-Plate), 300 ng plasmid DNA were diluted in 25 μL water and mixed with 25 μL of a solution with 2,100 ng Peptide Y (K16GACYGLPHKFCG) (GeneCust, Dudelage, Luxembourg). After an incubation period of 30 min, the nanoplexes were formed automatically. […]
The cytotoxic effect of the different constructs on the cells was measured by a CytoSMART® Omni, a camera-based system which took a photo of the bottom of each well every hour. The CytoSMART® Omni software calculated the confluence which is formed by living cells which are attached to the bottom. So, the cell growth could be monitored for 72 h. […]

Neuro2a cells [5] = assay: Sapofection: transfection efficiency of GFP-encoding PD nanoplexes by flow cytometry; assay type: cell-based, murine
Description: The PD nanoplexes comprised DNA encoding for the green fluorescent protein (GFP). Therewith, the transfection efficiency could very easily be monitored by detecting the fluorescence of the cells that have been incubated with the corresponding DNA nanoparticles. The corresponding incubation period was chosen to be 48 hours in the present case.
20 mg of positively charged poly-lysine peptides without an integrin-receptor-targeting amino sequence were purchased from Genecust. The vector of p-EGFP-N3, coding for the green fluorescing protein (GFP), was obtained and propagated with DH5α— E. coli cells (1.645 mg/mL). StemMACS™ eGFP mRNA (20 μg) and GFP encoding minicircle DNA (Gene Bank Accession: U55761) were used as further nucleic acids. In order to conduct the transfection, nanoplexes were formulated as follows: The poly-lysine peptides (P) and the p-EGFP-N3 vector (D), were diluted in water (each 50 μL) and mixed thoroughly by fast pipetting in a ratio of 4:1. The nanoplexes were allowed to form in a 30-minute incubation step. Thereafter, the nanoplex suspension was diluted with OptiMEM to a total volume of 1 mL. The commercial transfection reagent Lipofectamin®3000 was formulated as described by the manufacturer.
Neuro2a cells (15,000 cells/well) were seeded in a 24-well-plate with a well volume of 400 μL culture medium and incubated for 24 h. The transfection reagents were formulated as described above and admixed with saponin solution, if required. The culture medium was replaced with the transfection medium with a final amount of 500 ng DNA/RNA. After a 48 h incubation period, the transfection medium was removed, the cells were trypsinized and transferred in a polystyrene tube for flow cytometry (Cytoflex). For each measurement 10,000 cells were acquired. The transfection efficiency was determined by the analysis software Cyflogic (by comparison of the sample plots with the negative control in terms of fluorescence).

Neuro2a cells [6] = assay type: cell-based, murine; details: saponin alone, 4 μg/mL
From the text: FIGS. 6A and 6B show cell viability tests upon AG1856-mediated delivery of GFP-minicircle-DNA- or RIP-minicircle-DNA-bearing nanoplexes.
Saporin and dianthin are cytotoxic proteins. If the transfection is successful, the transfected cells will die.
The curves depicted in FIG. 6A represent the results of the following measurements: […]

| SMILES | tolerance compared to other saponins (female NMRI nu/nu mice) | toxicity (impedance, real-time cell viability) (Neuro2a cells [1]; stepwise increase of AG1856 concentration, 2 to 24 μg/mL) | toxic effect (cell confluency as a measure of cell viability) (Neuro2a cells [2]) | toxicity-mediated drop of viability (MTT) (Neuro2a cells [3]) | proliferation worse than the negative group (normalized confluence) (Neuro2a cells [4]; AG1856 only) | transfection efficiency (Neuro2a cells [5]; GFP-plasmid nanoplexes, saponin increased from working concentration to 24 μg/mL (FIG. 5)) | transfection efficiency (Neuro2a cells [5]; PD nanoplexes (GFP DNA), saponin 2 μg/mL, 48 h incubation, versus Lipofectamin3000) | transfection efficiency (Neuro2a cells [5]; PD nanoplexes (GFP DNA), saponin 4 μg/mL or higher, 48 h incubation, versus Lipofectamin3000) | fluorescing cells (flow cytometric analysis) (Neuro2a cells [5]; transfection with GFP minicircle DNA performed with AG1856, n>3 (FIG. 6B)) | toxicity (cell viability) (Neuro2a cells [6]) | toxicity (impedance, real-time cell viability) (Neuro2a cells [1]; positive control, 4 μg/mL) | growth of the cells (normalized confluence) (Neuro2a cells [4]; positive control) |
| --- | --- | --- | --- | --- | --- | --- | --- | --- | --- | --- | --- | --- |
| CC(=O)OCC1OC(OC2C(O)C(OC3C(OC(=O)C45CCC(C)(C)CC4C4=CCC6C7(C)CCC(OC8OC(C(=O)O)C(O)C(OC9OCC(O)C(O)C9O)C8OC8OC(CO)C(O)C(O)C8O)C(C)(C=O)C7CCC6(C)C4(C)CC5O)OC(C)C(OC4OC(C)C(OC(C)=O)C(OC(C)=O)C4O)C3O)OC(C)C2OC2OCC(O)C(O)C2O)C(O)C(O)C1OC(C)=O (stereo not drawn) [AG1856] | superior tolerance | no significant toxicity increase | No distinct toxic effect | could not be observed | 12% | even increased efficiency | comparable to that of the gold standard Lipofectamin | even higher than that of Lipofectamin | Four cells out of five | no toxicity |  |  |
| COc1ccc(C[C@H](N)C(=O)N[C@H]2[C@@H](O)[C@H](n3cnc4c(N(C)C)ncnc43)O[C@@H]2CO)cc1 [puromycin, reference compound] |  |  |  |  |  |  |  |  |  |  | toxic | inhibit the growth of the cells instantly |
